From publication PMC5784132, “Investigation of 20S-hydroxyvitamin D3 analogs and their 1α-OH derivatives as potent vitamin D receptor agonists with anti-inflammatory activities” (Scientific Reports, 2018)
Read-outs that look alike come from different tables or passages of the source.

Assays:
rat CYP24A1 = target: T1, rat CYP24A1 (Rattus norvegicus, UniProt Q09128); assay: Kinetics of metabolism of analogs in phospholipid vesicles by rat CYP24A1; type: in vitro ADME; conditions: for Km: rat CYP24A1 0.14 µM, phospholipid vesicles, 1 min incubation, ± SE from curve fit
T1 construct: made in house; host or cells: E. coli
T1 sequence (Q09128 36-514): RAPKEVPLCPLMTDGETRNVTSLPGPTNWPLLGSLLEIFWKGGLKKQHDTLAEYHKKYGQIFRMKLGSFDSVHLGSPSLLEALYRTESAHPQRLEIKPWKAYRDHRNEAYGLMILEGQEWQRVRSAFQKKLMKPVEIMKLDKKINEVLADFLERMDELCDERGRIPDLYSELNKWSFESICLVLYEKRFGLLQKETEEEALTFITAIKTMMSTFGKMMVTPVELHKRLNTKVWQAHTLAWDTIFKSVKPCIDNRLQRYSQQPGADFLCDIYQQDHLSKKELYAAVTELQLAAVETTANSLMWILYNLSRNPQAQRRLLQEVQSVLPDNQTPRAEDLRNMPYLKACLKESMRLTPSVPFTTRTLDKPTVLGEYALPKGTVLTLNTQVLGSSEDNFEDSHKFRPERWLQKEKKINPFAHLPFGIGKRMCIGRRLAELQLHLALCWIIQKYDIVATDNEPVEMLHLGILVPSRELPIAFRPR
Experimental: An incubation time of 1 min was chosen to obtain the initial rate based on the time courses (Fig. 6) and previous studies[28],[29].
To test metabolism of each analog, they were incorporated into phospholipid vesicles made from dioleoyl phosphatidylcholine and cardiolipin by sonication, as before[24],[28]. […] Samples from incubations with CYP24A1 were extracted with dichloromethane and analysed by HPLC using a 25 cm Grace Alltima C18 column, as before[27],[28]. […] For the more polar 33, the acetonitrile gradient was 30% to 100% acetonitrile for 30 min then 100% acetonitrile for 20 min, at 0.5 mL/min.

mouse CYP27B1 = target: T2, mouse CYP27B1 (Mus musculus, UniProt O35084); assay: Metabolism (1α-hydroxylation) of analogs by mouse CYP27B1; type: in vitro ADME
T2 construct: made in house; host or cells: E. coli
T2 sequence (O35084 1-507): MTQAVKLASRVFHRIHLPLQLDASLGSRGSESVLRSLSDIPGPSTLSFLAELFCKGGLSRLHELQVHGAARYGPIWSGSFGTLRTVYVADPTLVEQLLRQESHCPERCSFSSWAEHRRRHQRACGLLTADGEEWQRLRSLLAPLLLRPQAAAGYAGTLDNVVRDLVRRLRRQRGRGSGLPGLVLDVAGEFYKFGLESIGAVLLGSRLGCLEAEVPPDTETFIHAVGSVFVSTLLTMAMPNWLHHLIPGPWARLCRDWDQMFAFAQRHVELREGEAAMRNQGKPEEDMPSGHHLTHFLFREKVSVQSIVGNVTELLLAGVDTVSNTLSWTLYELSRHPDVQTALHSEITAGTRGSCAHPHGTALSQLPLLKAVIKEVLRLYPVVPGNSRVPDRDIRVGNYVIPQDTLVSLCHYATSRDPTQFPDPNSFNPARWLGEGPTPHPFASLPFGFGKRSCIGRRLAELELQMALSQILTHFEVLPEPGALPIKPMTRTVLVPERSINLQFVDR
Experimental: In order to make the 1α-OH derivatives of the 20S(OH)D3 analogs enzymatically, and to assess their likely capacity to be 1α-hydroxylated in vivo, the ability of mouse CYP27B1 to hydroxylate these metabolites was examined. 25(OH)D3, the major natural substrate for CYP27B1[2],[30], was included for comparison. The 20S(OH)D3 analogs were incorporated into phospholipid vesicles and incubated with CYP27B1, then the extent of their metabolism was determined by HPLC (Table 2). All analogs tested except 33 were metabolized by CYP27B1. In each case only a single metabolite was produced, assumed to be the 1α-OH derivative based on the known high specificity of the enzyme for the 1α-position[24],[30],[31]. […] Metabolism of 4 was almost twice that of 20S(OH)D3 and metabolism of 23 almost three fold. Thus, the modifications to C24 and/or C25 seen in 13, 4 and 23 enhanced their ability to be metabolized by CYP27B1. […] In contrast, the introduction of an amide linkage into the side chain, as in 33, prevented its hydroxylation by CYP27B1.
Rat CYP24A1, mouse CYP27B1 and adrenodoxin and human adrenodoxin reductase were expressed in E. coli and purified as described before[28],[30],[35]. To test metabolism of each analog, they were incorporated into phospholipid vesicles made from dioleoyl phosphatidylcholine and cardiolipin by sonication, as before[24],[28]. The substrates in vesicles (510 µM phospholipid) were incubated at 37 °C with either CYP24A1 (0.14 µM) or CYP27B1 (0.8 µM) in a reconstituted system containing adrenodoxin (15 µM) and adrenodoxin reductase (0.4 µM). Samples from incubations with CYP24A1 were extracted with dichloromethane and analysed by HPLC using a 25 cm Grace Alltima C18 column, as before[27],[28]. Products (except 33) were separated using an acetonitrile on water gradient (45% to 100% for 20 min then 100% acetonitrile for 40 min at a flow rate of 0.5 mL/min). For the more polar 33, the acetonitrile gradient was 30% to 100% acetonitrile for 30 min then 100% acetonitrile for 20 min, at 0.5 mL/min. Products from incubations with CYP27B1 were similarly extracted with dichloromethane and analyzed by reverse phase HPLC using a 15 cm Grace Smart C18 column and an acetonitrile in water gradient (10 min 45% to 100% acetonitrile then 20 min at 100% acetonitrile, at 0.5 mL/min).

[1] = rats; cited from earlier work
[2] = set-up: method as in earlier work; conditions: mice, doses as high as 60 µg/kg; cited from earlier work
[3] = system: collagen-induced arthritis; set-up: method as in earlier work; conditions: mouse model, dose as low as 2 µg/kg; cited from earlier work

Structure (SMILES): C=C1CC[C@H](O)C/C1=C/C=C1\CCC[C@@]2(C)[C@H]1CC[C@@H]2[C@@](C)(O)CCOC(C)C [compound 13]
- Km, fold lower than that for 20S(OH)D3 (rat CYP24A1; rat CYP24A1): 3–4 fold
- kcat/Km, higher than for the next best analog, 4 (rat CYP24A1; rat CYP24A1): 72%
- Km (rat CYP24A1): 7.9 ± 1.5 mmol/mol PL
- conversion to product by CYP27B1, fold higher than 20S(OH)D3 (mouse CYP27B1; 20 min incubation): 4.3 fold

Structure (SMILES): C=C1CC[C@H](O)C/C1=C/C=C1\CCC[C@@]2(C)[C@H]1CC[C@@H]2[C@@](C)(O)CCCC(C)C [20S(OH)D3, 20S-hydroxyvitamin D3]
- Km, fold higher than for 4 (rat CYP24A1; rat CYP24A1): over 17 fold
- catalytic efficiency, fold lower than for 13 (rat CYP24A1; rat CYP24A1): 13 fold
- Km (rat CYP24A1): 34.8 ± 9.4 mmol/mol PL
- hypercalcemia [1]: does not cause hypercalcemia
- hypercalcemia [2]: does not cause hypercalcemia
- effect on collagen-induced arthritis [3]: suppressive effects
- Product (% total secosteroids) (mouse CYP27B1; 0.018 mol/mol phospholipid, 0.8 µM mouse CYP27B1, 20 min, 37 °C): 21.1 % total secosteroids
